Data reported in US11020408B2, “Polymer composed of repeat units having a biologically active molecule attached thereto via a pH-sensitive bond” (SPIREA LIMITED, priority 2014, dated 2021).

Tested on: Mycobacterium bovis BCG-lux grown in human monocyte-derived macrophages
Assay type: cell-based

Structure (SMILES): NNC(=O)c1ccncc1 [INH, isoniazid]
- antibiotic efficacy (in words): equivalent to the antibiotic efficacy of E80 nanoparticles
- antimycobacterial activity (in words): no antimycobacterial activity
- increase of BCG-lux bioluminescence compared to untreated cells: 32%
- reduction of BCG-lux bioluminescence: 53%
- viability lower than control cells: 15%

Structure (SMILES): CC[C@@H](CO)NCCN[C@@H](CC)CO [EMB, ethambutol]
- effect on BCG-lux viability (in words): did not reduce BCG-lux viability
